Results as given in US20200354426A1 (MEDIMMUNE LIMITED, priority 2016, published 2020).
Numbered stars: 1 amine (or outer) side, 2 acyl side, 3 side chain; on linkers, the order of the positions; unused ones are H or OH. Side chains are listed from the residue outwards. Peptide text beside a SMILES is read from it. * marks the point of attachment. γGlu = O=C(O)[C@H](CCC(=O)[*:2])N[*:1]; Palmitoyl = CCCCCCCCCCCCCCCC(=O)*

Experiments:
Assay in all cases: cAMP activity assay in assay medium (assay 1)
Type in all cases: cell-based
Human GLP1R = Human GLP1R (Homo sapiens, UniProt P43220); parameters: expressed in transfected cells; conditions: assay medium; Table 4; read-out: hGLP1R EC50
Human GLP1R, sequence (P43220 24-463): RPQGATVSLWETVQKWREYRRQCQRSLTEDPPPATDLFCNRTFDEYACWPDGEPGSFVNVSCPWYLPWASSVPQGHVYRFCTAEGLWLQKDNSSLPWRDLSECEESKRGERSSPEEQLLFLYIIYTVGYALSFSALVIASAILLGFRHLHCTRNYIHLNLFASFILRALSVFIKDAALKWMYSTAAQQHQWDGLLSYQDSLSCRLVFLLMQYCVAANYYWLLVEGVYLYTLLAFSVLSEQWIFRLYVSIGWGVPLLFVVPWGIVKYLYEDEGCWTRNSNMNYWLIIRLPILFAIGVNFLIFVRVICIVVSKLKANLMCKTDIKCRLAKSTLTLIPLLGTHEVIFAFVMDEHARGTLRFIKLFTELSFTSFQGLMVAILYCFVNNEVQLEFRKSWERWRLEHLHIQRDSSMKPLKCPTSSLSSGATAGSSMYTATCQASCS
From the text: (§1) Biological Activity of Peptides in Cell-Based cAMP Activity Assay (Assay 1):
(§2) All sample dilutions were made in duplicate.

Human GlucR = molecular target: T1, Human GlucR (Homo sapiens, UniProt P47871); conditions: assay medium; Table 4; read-out: hGlucR EC50
T1 construct: expressed in transfected cells
T1 sequence (P47871 26-477): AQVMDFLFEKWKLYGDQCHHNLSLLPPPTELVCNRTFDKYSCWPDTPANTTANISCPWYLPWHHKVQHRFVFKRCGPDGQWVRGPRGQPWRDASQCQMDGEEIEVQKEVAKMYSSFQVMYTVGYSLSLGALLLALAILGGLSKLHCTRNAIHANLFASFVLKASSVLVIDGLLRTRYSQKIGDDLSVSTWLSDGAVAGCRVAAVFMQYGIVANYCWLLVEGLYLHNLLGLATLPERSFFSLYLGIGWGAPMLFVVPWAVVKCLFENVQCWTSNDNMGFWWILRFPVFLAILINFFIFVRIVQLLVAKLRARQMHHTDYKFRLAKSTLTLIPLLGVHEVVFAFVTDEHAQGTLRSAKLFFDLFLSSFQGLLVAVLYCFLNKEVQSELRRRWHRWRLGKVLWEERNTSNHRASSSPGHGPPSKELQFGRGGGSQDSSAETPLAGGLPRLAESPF
From the text: as §1, §2

Human GIPr = molecular target: T2, Human GIPr (Homo sapiens, UniProt P48546); conditions: assay medium; Table 4; read-out: hGIPR EC50
T2 construct: expressed in transfected cells
T2 sequence (P48546 22-466): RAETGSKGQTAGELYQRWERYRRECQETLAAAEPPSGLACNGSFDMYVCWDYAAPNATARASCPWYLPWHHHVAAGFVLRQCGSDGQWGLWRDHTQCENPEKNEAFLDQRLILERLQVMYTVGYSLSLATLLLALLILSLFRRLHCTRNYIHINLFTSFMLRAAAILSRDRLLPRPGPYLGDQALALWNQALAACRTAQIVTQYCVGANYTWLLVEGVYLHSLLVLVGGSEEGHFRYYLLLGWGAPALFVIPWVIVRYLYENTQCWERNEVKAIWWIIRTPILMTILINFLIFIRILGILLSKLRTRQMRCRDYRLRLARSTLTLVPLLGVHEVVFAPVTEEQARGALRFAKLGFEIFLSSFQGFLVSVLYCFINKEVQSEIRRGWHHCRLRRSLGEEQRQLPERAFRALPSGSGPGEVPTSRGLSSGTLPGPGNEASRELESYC
From the text: as §1, §2

| EC50 (Human GLP1R) | EC50 (Human GlucR) | EC50 (Human GIPr) | SMILES |
| --- | --- | --- | --- |
| 0.0203 nM | 0.008 nM | 14.9 nM | CCCCCCCCCCCCCCCC(=O)N[C@@H](CCC(=O)NCCCC[C@H](NC(=O)[C@H](Cc1ccc(O)cc1)NC(=O)[C@H](CCCCN)NC(=O)[C@H](CO)NC(=O)[C@H](Cc1ccc(O)cc1)NC(=O)[C@H](CC(=O)O)NC(=O)[C@H](CO)NC(=O)[C@@H](NC(=O)[C@H](Cc1ccccc1)NC(=O)[C@@H](NC(=O)CNC(=O)[C@H](CCC(N)=O)NC(=O)[C@H](CO)NC(=O)[C@@H](N)Cc1c[nH]cn1)[C@@H](C)O)[C@@H](C)O)C(=O)N[C@@H](CC(=O)O)C(=O)N[C@@H](CO)C(=O)N[C@@H](CCCNC(=N)N)C(=O)N[C@@H](CO)C(=O)N[C@@H](C)C(=O)N[C@@H](CCC(N)=O)C(=O)N[C@@H](CC(=O)O)C(=O)N[C@@H](Cc1ccccc1)C(=O)N[C@H](C(=O)N[C@@H](CCC(N)=O)C(=O)N[C@@H](Cc1c[nH]c2ccccc12)C(=O)N[C@@H](CC(C)C)C(=O)N[C@H](C(=O)N[C@@H](C)C(=O)NCC(=O)NCC(N)=O)C(C)C)C(C)C)C(=O)O [g670] (H-HSQGTFTSDYSKYK([γGlu-Palmitoyl])DSRSAQDFVQWLVAGG-NH2; N-terminus assumed) |
| 0.151 nM | 38.4 nM | 1610 nM | CCCCCCCCCCCCCCCC(=O)N[C@@H](CCC(=O)NCCCC[C@H](NC(=O)[C@H](CO)NC(=O)[C@H](CC(=O)O)NC(=O)[C@H](CC(C)C)NC(=O)[C@H](Cc1ccc(O)cc1)NC(=O)[C@H](CCC(=O)O)NC(=O)[C@H](CO)NC(=O)[C@H](Cc1ccc(O)cc1)NC(=O)[C@H](CC(=O)O)NC(=O)[C@H](CO)NC(=O)[C@@H](NC(=O)[C@H](Cc1ccccc1)NC(=O)[C@@H](NC(=O)CNC(=O)[C@H](CCC(N)=O)NC(=O)CNC(=O)[C@@H](N)Cc1c[nH]cn1)[C@@H](C)O)[C@@H](C)O)C(=O)N[C@@H](CCCNC(=N)N)C(=O)N[C@@H](C)C(=O)N[C@@H](CCCNC(=N)N)C(=O)N[C@@H](CC(=O)O)C(=O)N[C@@H](Cc1ccccc1)C(=O)N[C@H](C(=O)N[C@@H](C)C(=O)N[C@@H](Cc1c[nH]c2ccccc12)C(=O)N[C@@H](CC(C)C)C(=O)N[C@H](C(=O)N[C@@H](C)C(=O)NCC(=O)NCC(N)=O)C(C)C)C(C)C)C(=O)O [g675] (H-HGQGTFTSDYSEYLDSK([γGlu-Palmitoyl])RARDFVAWLVAGG-NH2; N-terminus assumed) |
| 0.106 nM | 4.52 nM | 123 nM | CCCCCCCCCCCCCCCC(=O)N[C@@H](CCC(=O)NCCCC[C@H](NC(=O)[C@H](CO)NC(=O)[C@H](CC(=O)O)NC(=O)[C@H](CC(C)C)NC(=O)[C@H](Cc1ccc(O)cc1)NC(=O)[C@H](CCCCN)NC(=O)[C@H](CO)NC(=O)[C@H](Cc1ccc(O)cc1)NC(=O)[C@H](CC(=O)O)NC(=O)[C@H](CO)NC(=O)[C@@H](NC(=O)[C@H](Cc1ccccc1)NC(=O)[C@@H](NC(=O)CNC(=O)[C@H](CCC(N)=O)NC(=O)CNC(=O)[C@@H](N)Cc1c[nH]cn1)[C@@H](C)O)[C@@H](C)O)C(=O)N[C@@H](CCCNC(=N)N)C(=O)N[C@@H](C)C(=O)N[C@@H](CCC(=O)O)C(=O)N[C@@H](CC(=O)O)C(=O)N[C@@H](Cc1ccccc1)C(=O)N[C@H](C(=O)N[C@@H](CCC(N)=O)C(=O)N[C@@H](Cc1c[nH]c2ccccc12)C(=O)N[C@@H](CC(C)C)C(=O)N[C@H](C(=O)N[C@@H](C)C(=O)NCC(=O)NCC(N)=O)C(C)C)C(C)C)C(=O)O [g678] (H-HGQGTFTSDYSKYLDSK([γGlu-Palmitoyl])RAEDFVQWLVAGG-NH2; N-terminus assumed) |
